# Assay results from US12264163B2, “Compounds and methods for treating fibrotic pathologies” (Mayo Foundation for Medical Education and Research, priority 2019, dated 2025).
# Legend:
# YAP/TAZ = YAP/TAZ localization in lung alveolar epithelial and endothelial cells; assay type: cell-based, human; details: pulmonary (alveolar) epithelial and endothelial cells
# Experimental: N=4 (****p<0.0001 vs. 0.1% DMSO vehicle control)
# N=3 (****p<0.0001 vs. 0.1% DMSO vehicle control).
# Human lung fibroblasts and alveolar epithelial cells are treated with MS-9 and influence on YAP/TAZ localization is determined.
# Immunofluorescence Microscopy: Cells were plated into 96 well plates (Corning 3603) in their specific growth media and allowed to attach (8 hours). Media was then exchanged for the indicated conditions for each experiment. Cells were fixed in 3.7% formalin (Sigma-Aldrich), permeabilized in 0.25% Triton X-100 (Sigma-Aldrich) and then blocked with 1% BSA for 1 h. Cells or tissue sections were incubated overnight with mouse monoclonal antibody against αSMA (Sigma-Aldrich F3777), and/or a rabbit monoclonal antibody against YAP/TAZ (Cell Signaling D24E4) diluted 1:200 in PBS with 1% BSA. […] For scoring αSMA positive cells (FIG. 12), an observer blinded to the treatment conditions counted αSMA-positive cells using a visual threshold for bright fibrous staining; a minimum of 200 cells was counted for each condition. YAP/TAZ localization was quantified (FIGS. 6-10, 24-26, and 29-30) using Gen5 (Biotek) software. […] Quantification of double positive (YAP/TAZ and αSMA) cells from lung tissue sections (FIG. 17-21) was performed similarly; however separate thresholds were established for both YAP/TAZ and αSMA. A minimum of 4000 cells was quantified for each mouse.
# [1] = system: Collagen I and Fibronectin; test: Immuno-ECM: TGFβ-induced collagen I and fibronectin accumulation; assay type: cell-based, human; details: IPF patient-derived fibroblasts, TGFβ 48 hours then DHX 24 hours
# Experimental: IPF patient-derived fibroblasts grown at confluence were pre-stimulated with 2 ng/mL TGFβ for 48 hours and then treated with DHX (10 μM)+2 ng/mL TGFβ for an additional 24 hours prior to fixation. Cell derived matrix is measured using antibodies for Collagen I and Fibronectin. […] Representative traction maps are shown from cells plated onto 6.4 kPa matrices treated with the indicated concentration of DHX. RMS tractions were determined in two independent experiments; box and whisker plots show min to max, quartile, and mean from one representative experiment (****p<0.0001, *p<0.05 vs. 0.1% DMSO vehicle control).
# Immuno-ECM Adapting from previously published methods, IPF patient-derived fibroblasts were plated to confluence in clear-bottom 96-well plates. After cells attached, the medium was swapped for EMEM containing 0.10% FBS±2 ng/mL TGF-β. After 48 hours the indicated concentration of DHX or DMSO control was added to each well and incubated for 24 hours. WST-1 viability reagent was added to each well (Sigma-Aldrich) and measured on a Flexstation 3 (Molecular Devices) plate reader. […] Plates were imaged via a Li-Cor OdysseyXL system with quantification performed via densitometry. Data are expressed as IR intensity relative to WST-1 signal absorbance in order to account for any potential compound toxicity.
# NIH-3T3 cells = test: Matrix remodeling measured by atomic force microscopy; assay type: cell-based, mouse; details: TGFβ + ascorbic acid 72 hours, then 10 μM DHX 72 hours
# Experimental: NIH-3T3 cells plated onto gelatin-coated tissue culture plates stimulated to deposit matrix with 2 ng/mL TGFβ and 20 μM ascorbic acid for 72 hours prior to AFM microindentation analysis to measure stiffness (elastic modulus). The same dishes were then treated +/−10 μM DHX in the same media for another 72 hours and AFM analysis. The matrices were decellularized and passage 3 NHLFs were plated onto the matrices; after 24 hours RNA was collected and expression of profibrotic genes was analyzed. AFM analysis N=2. 75 indentation measurements were made for each plate. The box and whisker plots show min to max, quartile, and mean from one representative experiment (****p<0.0001 vs. 0.1% DMSO vehicle control) (++p<0.01, +p<0.05 vs. the same culture plate after the first 72 hour incubation). […]
# Matrix Remodeling Measured by Atomic Force Microscopy: NIH-3T3 cells were plated to confluence onto gelatin coated (Cell Biologics) AFM compatible tissue culture dishes (Willco) in DMEM containing 10% FBS. […] Microindentations were performed using a 2.5 μm radius sphere-tipped probe (Novascan, IA, USA) with a spring constant determined at about 100 pN/nm by thermal fluctuation method. For each dish, 3 different areas were analyzed. […] The Young's modulus E was determined by the fitting of force curve by Hertz model using NanoScope Analysis software (Bruker) and considering Poisson's ratio of 0.5. […]
structure (smiles),measurement,setting,value
Oc1cc2c(cc1O)[C@H]1c3ccccc3CN[C@@H]1CC2 (racemic) [Dihydrexidine],YAP/TAZ localization in epithelial / endothelial cells,YAP/TAZ,no effect on YAP/TAZ localization
same,TGFβ-stimulated accumulation of collagen I and fibronectin,[1],dose-dependently reversed
same,stiffness of cells and cell-derived matrix (AFM),NIH-3T3 cells,significantly reduced the observed stiffness
